Test: Example 3: phase 3 trial, enavogliflozin 0.3 mg vs dapagliflozin 10 mg once a day for 24 weeks added to metformin and gemigliptin in patients with type 2 diabetes (same endpoints, rescue drug)
Type: in vivo, human
Protocol: 1) when Metformin (≥1,000 mg/Day) was Administered at a Constant Dose for at Least 8 Weeks Prior to Pre-Visit (Pre-Screening) • Metformin (≥1,000 mg/day) and gemigliptin (50 mg/day) were co-administered during the 8-week stabilization period. […] 4) when Metformin (≥1,000 mg/Day) and Gemigliptin (50 mg/Day) were Co-Administered at Constant Doses for at Least 8 Weeks Prior to Pre-Visit (Prescreening) • Without a separate stabilization period, Pre-visit (pre-screening) was Visit 1 (screening).
Subjects who met the inclusion/exclusion criteria continued to receive metformin and gemigliptin while receiving a placebo of the clinical trial drug in a single-blind (subject-blinded) state for a 2-week run-in period.
Here, the randomized subjects were stratified according to the administration therapy (co-administration with two or less agents (one or two agents) or three or more agents) of a conventional hypoglycemic agent (before washout of another hypoglycemic agent) within 24 weeks prior to obtaining written informed consent and by an HbA1c value (<8% or ≥8%) at Visit 1 (screening) measured in the central laboratory.
The randomized subjects were administered two tablets of the clinical trial drug corresponding to each administration group once a day, and then visited the institution at weeks 6, 12, 18, and 24 during the 24-week administration period to conduct efficacy and safety assessments. In addition, during the clinical trial period, they were instructed to exercise regularly and control their diet without changing their daily life patterns.
• 1) Change in HbA1c at week 24 after administration of clinical trial drug compared to Visit 2 (randomization)
• 1) Change in HbA1c at each time point of weeks 6, 12, and 18 after administration of clinical trial drug compared to Visit 2 (randomization) • 2) Change in FPG at each time point of weeks 6, 12, 18, and 24 after administration of clinical trial drug compared to Visit 2 (randomization) • 3) Proportion of subjects achieving HbA1c<7% at each time point of weeks 6, 12, 18, and 24 after administration of clinical trial drug • 4) Proportion of subjects achieving HbA1c<6.5% at each time point of weeks 6, 12, 18, and 24 after administration of clinical trial drug • 5) Proportion of subjects achieving therapeutic response (HbA1c change (HbA1c at Visit 2—HbA1c at each evaluation time point)>0.5% or HbA1c<7% at each evaluation time point compared to Visit 2 (randomization)) at each time point of weeks 6, 12, 18, and 24 after administration of clinical trial drug • 6) Proportion of subjects achieving therapeutic response (HbA1c change (HbA1c at Visit 2—HbA1c at each evaluation time point)>0.7% or HbA1c<7% at each evaluation time point compared to Visit 2 (randomization)) at each time point of weeks 6, 12, 18, and 24 after administration of clinical trial drug • 7) Proportion of subjects achieving therapeutic response (HbA1c change (HbA1c at Visit 2—HbA1c at each evaluation time point)>1% or HbA1c<7% at each evaluation time point compared to Visit 2 (randomization)) at each time point of weeks 6, 12, 18, and 24 after administration of clinical trial drug

[1] = week 6, per-protocol set, enavogliflozin 0.3 mg, dapagliflozin 10 mg
[2] = week 12, modified per-protocol set 1, enavogliflozin 0.3 mg vs dapagliflozin 10 mg
[3] = week 12, modified per-protocol set 1, enavogliflozin 0.3 mg, dapagliflozin 10 mg
[4] = week 12, modified per-protocol set 2

OC[C@H]1O[C@@H](c2cc(Cc3ccc(C4CC4)cc3)c(Cl)c3c2CCO3)[C@H](O)[C@@H](O)[C@@H]1O [Enavogliflozin, (2S,3R,4R,5S,6R)-2-(7-chloro-6 (4-cyclopropylbenzyl)-2,3-dihydrobenzofuran-4-yl)-6-(hydroxymethyl)tetrahydro-2H-pyran-3,4,5-triol]
Fasting C-peptide, Mean [1]: 0.67 ng/mL | Fasting C-peptide, Median [1]: 0.63 ng/mL | HbA1c, Mean [1]: 7.06% | HbA1c, Median [1]: 6.94% | Subjects achieving HbA1c target of <6.5%, (%) [1]: 11.21% | Subjects achieving HbA1c target of <7%, % [1]: 56.03% | body weight, Median [1]: 66.80 kg | Subjects achieving therapeutic glycemic response 1, % (week 6, per-protocol set, response 1 = HbA1c change >0.5% or HbA1c <7%, enavogliflozin 0.3 mg, dapagliflozin 10 mg): 87.07% | Subjects achieving therapeutic glycemic response 2, % (week 6, per-protocol set, response 2 = HbA1c change >0.7% or HbA1c <7%, enavogliflozin 0.3 mg, dapagliflozin 10 mg): 78.45% | Subjects achieving therapeutic glycemic response 3, % (week 6, per-protocol set, response 3 = HbA1c change >1% or HbA1c <7%, enavogliflozin 0.3 mg, dapagliflozin 10 mg): 70.69% | FPG change from baseline, LS mean (SE) (week 12): −27.17(1.54) mg/dL | HDL-C change from baseline, LS mean (SE) (week 12): 3.18(0.62) mg/dL | HOMA-β change from baseline, LS mean (SE) (week 12): 7.78(1.94) | HbA1c change from baseline, LS mean (SE) (week 12): −0.87(0.04) % p | LDL-C change from baseline, LS mean (SE) (week 12): 2.95(1.79) mg/dL | UACR change from baseline, LS mean (SE) (week 12): −15.12(4.60) g/kg | UGCR change from baseline, LS mean (SE) (week 12): 58.21(2.07) mg/mg | adiponectin change from baseline, LS mean (SE) (week 12): 0.89(0.34) μg/mL | body weight change from baseline, LS mean (SE) (week 12): −2.72(0.20) kg | diastolic blood pressure change from baseline, LS mean (SE) (week 12): −4.30(0.69) mmHg | fasting C-peptide change from baseline, LS mean (SE) (week 12): −0.09(0.02) ng/ml | leptin change from baseline, LS mean (SE) (week 12): −1.97(0.48) ng/ml | systolic blood pressure change from baseline, LS mean (SE) (week 12): −6.43(0.88) mmHg | total cholesterol change from baseline, LS mean (SE) (week 12): 6.80(2.04) mg/dL | triglyceride change from baseline, LS mean (SE) (week 12): −3.23(5.25) mg/dL | FPG change from baseline, LS mean difference (week 12, vs dapagliflozin): -2.75 mg/dL | HDL-C change from baseline, LS mean difference (week 12, vs dapagliflozin): 0.34 mg/dL | HOMA-IR change from baseline, LS mean difference (week 12, vs dapagliflozin): −0.06 | HOMA-β change from baseline, LS mean difference (week 12, vs dapagliflozin): 2.55 | HbA1c change from baseline, LS mean difference (week 12, vs dapagliflozin): −0.04 % p | LDL-C change from baseline, LS mean difference (week 12, vs dapagliflozin): 0.24 mg/dL | Odds ratio for achieving HbA1c<6.5% (week 12, vs dapagliflozin): 1.44 | Odds ratio for achieving HbA1c<7% (week 12, vs dapagliflozin): 1.20 | Odds ratio, therapeutic response (HbA1c change >0.5% or HbA1c<7%) (week 12, vs dapagliflozin): 1.09 | Odds ratio, therapeutic response (HbA1c change >0.7% or HbA1c<7%) (week 12, vs dapagliflozin): 1.30 | Odds ratio, therapeutic response (HbA1c change >1% or HbA1c<7%) (week 12, vs dapagliflozin): 1.31 | UACR change from baseline, LS mean difference (week 12, vs dapagliflozin): -3.35 g/kg | UGCR change from baseline, LS mean difference (week 12, vs dapagliflozin): 13.37 mg/mg | adiponectin change from baseline, LS mean difference (week 12, vs dapagliflozin): 0.19 µg/mL | body weight change from baseline, LS mean difference (week 12, vs dapagliflozin): -0.01 kg | diastolic blood pressure change from baseline, LS mean difference (week 12, vs dapagliflozin): −2.04 mmHg | fasting C-peptide change from baseline, LS mean difference (week 12, vs dapagliflozin): -0.02 ng/mL | leptin change from baseline, LS mean difference (week 12, vs dapagliflozin): -0.28 ng/mL | systolic blood pressure change from baseline, LS mean difference (week 12, vs dapagliflozin): −1.37 mmHg | total cholesterol change from baseline, LS mean difference (week 12, vs dapagliflozin): 1.40 mg/dL | triglyceride change from baseline, LS mean difference (week 12, vs dapagliflozin): 8.79 mg/dL | Change from baseline in HDL-C, ANCOVA LS mean difference [2]: 0.34 mg/dL | Change from baseline in LDL-C, ANCOVA LS mean difference [2]: 0.24 mg/dL | Change from baseline in total cholesterol, ANCOVA LS mean difference [2]: 1.40 mg/dL | Change from baseline in triglycerides, ANCOVA LS mean difference [2]: 8.79 mg/dL | Change from baseline in HDL-C, ANCOVA LS mean [3]: 3.18 mg/dL | Change from baseline in HDL-C, Mean [3]: 3.17 mg/dL | Change from baseline in HDL-C, Median [3]: 3.00 mg/dL | Change from baseline in LDL-C, ANCOVA LS mean [3]: 2.95 mg/dL | Change from baseline in LDL-C, Mean [3]: 3.76 mg/dL | Change from baseline in LDL-C, Median [3]: 3.00 mg/dL | Change from baseline in total cholesterol, ANCOVA LS mean [3]: 6.80 mg/dL | Change from baseline in total cholesterol, Mean [3]: 7.79 mg/dL | Change from baseline in total cholesterol, Median [3]: 7.00 mg/dL | Change from baseline in triglycerides, ANCOVA LS mean [3]: -3.23 mg/dL | Change from baseline in triglycerides, Mean [3]: 0.59 mg/dL | Change from baseline in triglycerides, Median [3]: -3.00 mg/dL | Fasting HDL-C, Mean [3]: 49.21 mg/dL | Fasting HDL-C, Median [3]: 47.50 mg/dL | Fasting LDL-C, Mean [3]: 75.11 mg/dL | Fasting LDL-C, Median [3]: 72.00 mg/dL | Fasting total cholesterol, Mean [3]: 142.09 mg/dL | Fasting triglycerides, Mean [3]: 118.98 mg/dL | Fasting triglycerides, Median [3]: 98.50 mg/dL | fasting Total cholesterol, Median [3]: 136.00 mg/dL | Change from baseline in diastolic blood pressure, ANCOVA LS mean [4]: −4.30 mmHg | Change from baseline in diastolic blood pressure, LS mean difference (enavogliflozin − dapagliflozin) [4]: −2.04 mmHg

— US20260130933A1, “PHARMACEUTICAL COMPOSITION FOR PREVENTION OR TREATMENT OF NEPHROPATHY AND/OR DIABETES MELLITUS, COMPRISING ENAVOGLIFLOZIN” (DAEWOONG PHARMACEUTICAL CO., LTD., priority 2022, published 2026)
